Molecules are shown by their SMILES. Like-named read-outs stand apart in the source and are kept apart here.

One assay relates to Tankyrases. Nature of the assay: Measurement of cellular inhibition of Tankyrase (Axin2 level, Luminex based assay, DLD1 cells). To be noted: increase of Axin2 level, 24 hours, read-out: EC50 [M] TNKS cellular assay. Type of assay: cell-based.
A further assay has as its target TNKS2 (Homo sapiens (Human), UniProt Q9H2K2). The assay can be described thus: biochemical. Type of assay: biochemical.
The target of a further assay is TNKS1 (Homo sapiens (Human), UniProt O95271). The assay can be described thus: biochemical. Type of assay: biochemical.
[1] abbreviates: GST-tagged Tnks-2 (873-1166 aa), read-out: IC50 [M] TNKS2 ELISA.
[2] abbreviates: GST-tagged Tnks-1 (1023-1327 aa), read-out: IC50 [M] TNKS1 ELISA.

For `CC(C)CC(CC(=O)N1CCC(C(=O)c2cnn(C)c2)CC1)Cc1nc2ccccc2c(=O)[nH]1` (stereo in doubt) [Compound C10, 2-((S)-4-Methyl-2-{2-[4-(1-methyl-1H-pyrazole-4-carbonyl)-piperidin-1-yl]-2-oxo-ethyl}-pentyl)-3H-quinazolin-4-one], the EC50 (as a rule, the midpoint of the concentration-response curve) with Tankyrases worked out at 9e-08 M.

Take `CC(C)CC(CC(=O)N1CCC(C(=O)c2cnn(C)c2)CC1)Cc1nc2ccccc2c(=O)[nH]1` (stereo in doubt) [Compound C11, 2-((R)-4-Methyl-2-{2-[4-(1-methyl-1H-pyrazole-4-carbonyl)-piperidin-1-yl]-2-oxo-ethyl}-pentyl)-3H-quinazolin-4-one]: in the assay on Tankyrases, the EC50 was determined as 5e-09 M.

In the case of `Cn1cc(C(=O)C2CCN(C(=O)CC(C)(C)Cc3nc4ccccc4c(=O)[nH]3)CC2)cn1` [Compound C1, 2-{2,2-Dimethyl-4-[4-(1-methyl-1H-pyrazole-4-carbonyl)-piperidin-1-yl]-4-oxo-butyl}-3H-quinazolin-4-one], the IC50 (commonly the concentration at which inhibition is half-maximal) on TNKS2 (setting [1]) is 3.7e-10 M; on TNKS1 (setting [2]), 5.7e-10 M. The EC50 in the assay on Tankyrases worked out at 4.5e-09 M.

Take `C[C@H](CC(=O)N1CCC(C(=O)c2cnn(C)c2)CC1)Cc1nc2ccccc2c(=O)[nH]1` [Compound C2, 2-{(S)-2-Methyl-4-[4-(1-methyl-1H-pyrazole-4-carbonyl)-piperidin-1-yl]-4-oxo-butyl}-3H-quinazolin-4-one]: the EC50 with Tankyrases amounted to 4.7e-09 M.

Regarding `C[C@@H](CC(=O)N1CCC(C(=O)c2cnn(C)c2)CC1)Cc1nc2ccccc2c(=O)[nH]1` [Compound C3, 2-{(R)-2-Methyl-4-[4-(1-methyl-1H-pyrazole-4-carbonyl)-piperidin-1-yl]-4-oxo-butyl}-3H-quinazolin-4-one], in the assay with Tankyrases, the EC50 turned out to be 3e-08 M.

As to `CC(C)n1cc(C(=O)C2CCN(C(=O)C[C@@H](C)Cc3nc4ccccc4c(=O)[nH]3)CC2)cn1` [Compound C4, 2-{(S)-4-[4-(1-Isopropyl-1H-pyrazole-4-carbonyl)-piperidin-1-yl]-2-methyl-4-oxo-butyl}-3H-quinazolin-4-one], the EC50 in the assay with Tankyrases is 4.7e-09 M.

For the compound `CC(C)n1cc(C(=O)C2CCN(C(=O)C[C@H](C)Cc3nc4ccccc4c(=O)[nH]3)CC2)cn1` [Compound C5, 2-{(R)-4-[4-(1-Isopropyl-1H-pyrazole-4-carbonyl)-piperidin-1-yl]-2-methyl-4-oxo-butyl}-3H-quinazolin-4-one], the EC50 in the assay on Tankyrases was found to be 3.9e-08 M.

On to `CC(C)[C@H](CC(=O)N1CCC(C(=O)c2cnn(C)c2)CC1)Cc1nc2ccccc2c(=O)[nH]1` [Compound C8, 2-((S)-3-Methyl-2-{2-[4-(1-methyl-1H-pyrazole-4-carbonyl)-piperidin-1-yl]-2-oxo-ethyl}-butyl)-3H-quinazolin-4-one], for which the EC50 in the assay with Tankyrases was 9.2e-09 M.

As for `CC(C)[C@@H](CC(=O)N1CCC(C(=O)c2cnn(C)c2)CC1)Cc1nc2ccccc2c(=O)[nH]1` [Compound C9, 2-((R)-3-Methyl-2-{2-[4-(1-methyl-1H-pyrazole-4-carbonyl)-piperidin-1-yl]-2-oxo-ethyl}-butyl)-3H-quinazolin-4-one], the EC50 in the assay with Tankyrases was determined as 1.4e-07 M.

Regarding `Cn1cc(C(=O)C2CCN(C(=O)CC3(Cc4nc5ccccc5c(=O)[nH]4)CC3)CC2)cn1` [Compound C12, 2-(1-{2-[4-(1-Methyl-1H-pyrazole-4-carbonyl)-piperidin-1-yl]-2-oxo-ethyl}-cyclopropylmethyl)-3H-quinazolin-4-one], the IC50 at TNKS2 (setting [1]) stood at 1e-09 M; at TNKS1 (setting [2]), 2.2e-09 M. Moreover, the EC50 in the assay with Tankyrases was found to be 2.3e-08 M.

In the case of `Cn1cc(C(=O)C2CCN(C(=O)C(C)(C)CCc3nc4ccccc4c(=O)[nH]3)CC2)cn1` [Compound C13, 2-{3,3-Dimethyl-4-[4-(1-methyl-1H-pyrazole-4-carbonyl)-piperidin-1-yl]-4-oxo-butyl}-3H-quinazolin-4-one], the results for the IC50 at TNKS2 (setting [1]) and at TNKS1 (setting [2]) were 4.2e-07 M and 6.1e-07 M, respectively. For the same compound, the EC50 in the assay with Tankyrases was 2.3e-06 M.

As to `Cn1cc(C(=O)C2CCN(C(=O)CCC(C)(C)c3nc4ccccc4c(=O)[nH]3)CC2)cn1` [Compound C14, 2-{1,1-Dimethyl-4-[4-(1-methyl-1H-pyrazole-4-carbonyl)-piperidin-1-yl]-4-oxo-butyl}-3H-quinazolin-4-one], the IC50 turned out to be 4.4e-08 M at TNKS2 (setting [1]) and 6.3e-08 M at TNKS1 (setting [2]).

Turning to `COc1ccc(C(=O)C2CCN(C(=O)CCC(C)(C)c3nc4ccccc4c(=O)[nH]3)CC2)cc1` [Compound C15, 2-{4-[4-(4-Methoxy-benzoyl)-piperidin-1-yl]-1,1-dimethyl-4-oxo-butyl}-3H-quinazolin-4-one], the half-maximal inhibitory concentration (IC50) at TNKS2 (setting [1]) was 5e-09 M; at TNKS1 (setting [2]) it was 9.2e-09 M. Besides, in the assay with Tankyrases, the EC50 came out at 6.2e-08 M.

Turning to `COc1ccc(C(=O)C2CCN(C(=O)CC(C)(C)Cc3nc4c(ccn4C)c(=O)[nH]3)CC2)cn1` [Compound C16, 2-{4-[4-(6-Methoxy-pyridine-3-carbonyl)-piperidin-1-yl]-2,2-dimethyl-4-oxo-butyl}-7-methyl-3,7-dihydro-pyrrolo[2,3-d]pyrimidin-4-one], the IC50 stood at 4.1e-10 M on TNKS2 (setting [1]) and 6.1e-10 M at TNKS1 (setting [2]). The EC50 in the assay with Tankyrases amounted to 4.1e-09 M.

For `CC(C)n1cc(C(=O)C2CCN(C(=O)CC(C)(C)Cc3nc4c(ccn4C)c(=O)[nH]3)CC2)cn1` [Compound C19, 2-{4-[4-(1-Isopropyl-1H-pyrazole-4-carbonyl)-piperidin-1-yl]-2,2-dimethyl-4-oxo-butyl}-7-methyl-3,7-dihydro-pyrrolo[2,3-d]pyrimidin-4-one], the concentration for half-maximal inhibition (IC50) stood at 5.8e-10 M on TNKS2 (setting [1]) and 1.3e-09 M at TNKS1 (setting [2]). Moreover, the EC50 in the assay with Tankyrases came to 9.3e-09 M.

As to `COc1ccc(C(=O)C2CCN(C(=O)COCc3nc4ccccc4c(=O)[nH]3)CC2)cc1` [Compound C23, 2-{2-[4-(4-Methoxy-benzoyl)-piperidin-1-yl]-2-oxo-ethoxymethyl}-3H-quinazolin-4-one], the values for the IC50 on TNKS2 (setting [1]) and at TNKS1 (setting [2]) were 2.1e-09 M and 6.3e-09 M, respectively. Also, the concentration for a half-maximal effect (EC50) in the assay on Tankyrases was 2.6e-08 M.

For `Cn1cc(C(=O)C2CCN(C(=O)COCc3nc4ccccc4c(=O)[nH]3)CC2)cn1` [Compound C24, 2-{2-[4-(1-Methyl-1H-pyrazole-4-carbonyl)-piperidin-1-yl]-2-oxo-ethoxymethyl}-3H-quinazolin-4-one], the IC50 at TNKS2 (setting [1]) was found to be 1.2e-08 M; at TNKS1 (setting [2]) it was 2.7e-08 M. Besides, the EC50 with Tankyrases stood at 1e-07 M.

In the case of `COc1ccc(C(=O)C2CCN(C(=O)COCc3nc4ccccc4c(=O)[nH]3)CC2)cn1` [Compound C25, 2-{2-[4-(6-Methoxy-pyridine-3-carbonyl)-piperidin-1-yl]-2-oxo-ethoxymethyl}-3H-quinazolin-4-one], the IC50 came to 1.2e-08 M on TNKS2 (setting [1]) and 3.6e-08 M at TNKS1 (setting [2]). The EC50 with Tankyrases came to 6.4e-08 M.

In the case of `COc1ccc(C(=O)C2CCN(C(=O)COCc3nc4c(F)cc(F)cc4c(=O)[nH]3)CC2)cc1` [Compound C26, 6,8-Difluoro-2-{2-[4-(4-methoxy-benzoyl)-piperidin-1-yl]-2-oxo-ethoxymethyl}-3H-quinazolin-4-one], the IC50 stood at 3e-09 M on TNKS2 (setting [1]) and 7.7e-09 M on TNKS1 (setting [2]). In addition, in the assay on Tankyrases, the concentration for a half-maximal effect (EC50) worked out at 2.3e-08 M.

Turning to `Cn1cc(C(=O)C2CCN(C(=O)COCc3nc4c(F)cc(F)cc4c(=O)[nH]3)CC2)cn1` [Compound C27, 6,8-Difluoro-2-{2-[4-(1-methyl-1H-pyrazole-4-carbonyl)-piperidin-1-yl]-2-oxo-ethoxymethyl}-3H-quinazolin-4-one], the IC50 against TNKS2 is 1.3e-08 M; at TNKS1, 2.9e-08 M.

`COc1ccc(C(=O)C2CCN(C(=O)NCCc3nc4ccccc4c(=O)[nH]3)CC2)cc1` [Compound C29, 4-(4-Methoxy-benzoyl)-piperidine-1-carboxylic acid [2-(4-oxo-3,4-dihydro-quinazolin-2-yl)-ethyl]-amide]: the values for the IC50 at TNKS2 (setting [1]) and on TNKS1 (setting [2]) were 8.4e-10 M and 1.8e-09 M, respectively.

Take `COc1ccc(C(=O)C2CCN(C(=O)N(C)CCc3nc4ccccc4c(=O)[nH]3)CC2)cc1` [Compound C30, 4-(4-Methoxy-benzoyl)-piperidine-1-carboxylic acid methyl-[2-(4-oxo-3,4-dihydro-quinazolin-2-yl)-ethyl]-amide]: the values for the IC50 at TNKS2 (setting [1]) and on TNKS1 (setting [2]) were 5.7e-10 M and 6.2e-10 M, respectively.

Regarding `CC(C)(CC(=O)N1CCC(C(=O)c2cccc(C(=O)O)c2)CC1)Cc1nc2ccccc2c(=O)[nH]1` [Compound C35, 3-{1-[3,3-Dimethyl-4-(4-oxo-3,4-dihydro-quinazolin-2-yl)-butyryl]-piperidine-4-carbonyl}-benzoic Acid], in the assay on Tankyrases, the EC50 turned out to be 5.5e-06 M.

As to `Cc1cccc2c(=O)[nH]c(CC(C)(C)CC(=O)N3CCC(C(=O)c4cccc(C(=O)O)c4)CC3)nc12` [Compound C37, 3-{1-[3,3-Dimethyl-4-(8-methyl-4-oxo-3,4-dihydro-quinazolin-2-yl)-butyryl]-piperidine-4-carbonyl}-benzoic Acid], the concentration giving a half-maximal response (EC50) in the assay with Tankyrases was 4.8e-07 M.

As for `COC(=O)c1cccc(C(=O)C2CCN(C(=O)C[C@H](C)Cc3nc4c(C)cccc4c(=O)[nH]3)CC2)c1` [Compound C42, 3-{1-[(R)-3-Methyl-4-(8-methyl-4-oxo-3,4-dihydro-quinazolin-2-yl)-butyryl]-piperidine-4-carbonyl}-benzoic Acid Methyl Ester], the half-maximal effective concentration (EC50) in the assay on Tankyrases worked out at 2.5e-08 M.

Take `COC(=O)c1cccc(C(=O)C2CCN(C(=O)C[C@@H](C)Cc3nc4c(C)cccc4c(=O)[nH]3)CC2)c1` [Compound C43, 3-{1-[(S)-3-Methyl-4-(8-methyl-4-oxo-3,4-dihydro-quinazolin-2-yl)-butyryl]-piperidine-4-carbonyl}-benzoic Acid Methyl Ester]: in the assay on Tankyrases, the concentration for a half-maximal effect (EC50) is 4.7e-10 M.

Take `Cc1cccc2c(=O)[nH]c(C[C@@H](C)CC(=O)N3CCC(C(=O)c4cccc(C(=O)O)c4)CC3)nc12` [Compound C44, 3-{1-[(R)-3-Methyl-4-(8-methyl-4-oxo-3,4-dihydro-quinazolin-2-yl)-butyryl]-piperidine-4-carbonyl}-benzoic Acid]: in the assay on Tankyrases, the EC50 was determined as 5.3e-06 M.

Regarding `Cc1cccc2c(=O)[nH]c(C[C@H](C)CC(=O)N3CCC(C(=O)c4cccc(C(=O)O)c4)CC3)nc12` [Compound C45, 3-{1-[(S)-3-Methyl-4-(8-methyl-4-oxo-3,4-dihydro-quinazolin-2-yl)-butyryl]-piperidine-4-carbonyl}-benzoic acid], the EC50 with Tankyrases was determined as 8.9e-08 M.

The values above are taken from patent US10570116B2, “1,4-dicarbonyl-piperidyl derivatives” (Merck Patent GmbH, priority 2015, dated 2020).
